The NIST ThermoML archive (doi:10.1021/acs.jced.8b00591)

Assay: xn = mol fraction of the nth substance listed
Details: 101.3 kPa, Liquid; for viscosity: Falling or rolling sphere viscometry; for mass density: Vibrating tube method

CCn1cc[n+](C)c1.O=S(=O)([N-]S(=O)(=O)C(F)(F)F)C(F)(F)F + COC(=O)OC
Details | mass density [kg/m3] | viscosity [mPa·s]
288.15 K, x1 = 0.0989 | 1199.15 | 1.579
288.15 K, x1 = 0.1983 | 1282.85 | 2.913
288.15 K, x1 = 0.2973 | 1342.57 | 4.862
288.15 K, x1 = 0.3958 | 1387.69 | 7.561
288.15 K, x1 = 0.496 | 1423.97 | 11.21
288.15 K, x1 = 0.5954 | 1452.55 | 16.89
288.15 K, x1 = 0.6967 | 1476.87 | 22.56
288.15 K, x1 = 0.7982 | 1497.52 | 30.07
288.15 K, x1 = 0.9004 | 1514.5 | 38.55
288.15 K, x1 = 1 | 1528.55 | 49.41
293.15 K, x1 = 0.0989 | 1193.1 | 1.451
293.15 K, x1 = 0.1983 | 1277.11 | 2.637
293.15 K, x1 = 0.2973 | 1337.02 | 4.332
293.15 K, x1 = 0.3958 | 1382.28 | 6.635
293.15 K, x1 = 0.496 | 1418.62 | 9.698
293.15 K, x1 = 0.5954 | 1447.28 | 14.58
293.15 K, x1 = 0.6967 | 1471.62 | 19.02
293.15 K, x1 = 0.7982 | 1492.37 | 25.12
293.15 K, x1 = 0.9004 | 1509.39 | 31.87
293.15 K, x1 = 1 | 1523.47 | 40.36
298.15 K, x1 = 0.0989 | 1187.03 | 1.348
298.15 K, x1 = 0.1983 | 1271.35 | 2.4
298.15 K, x1 = 0.2973 | 1331.47 | 3.884
298.15 K, x1 = 0.3958 | 1376.85 | 5.878
298.15 K, x1 = 0.496 | 1413.28 | 8.484
298.15 K, x1 = 0.5954 | 1442.02 | 12.53
298.15 K, x1 = 0.6967 | 1466.42 | 16.66
298.15 K, x1 = 0.7982 | 1487.23 | 21.25
298.15 K, x1 = 0.9004 | 1504.28 | 26.71
298.15 K, x1 = 1 | 1518.39 | 33.52
303.15 K, x1 = 0.0989 | 1180.95 | 1.25
303.15 K, x1 = 0.1983 | 1265.59 | 2.195
303.15 K, x1 = 0.2973 | 1325.91 | 3.507
303.15 K, x1 = 0.3958 | 1371.44 | 5.241
303.15 K, x1 = 0.496 | 1407.96 | 7.472
303.15 K, x1 = 0.5954 | 1436.78 | 10.8
303.15 K, x1 = 0.6967 | 1461.24 | 14.52
303.15 K, x1 = 0.7982 | 1482.09 | 18.37
303.15 K, x1 = 0.9004 | 1499.19 | 22.66
303.15 K, x1 = 1 | 1513.34 | 28.35
308.15 K, x1 = 0.0989 | 1174.86 | 1.162
308.15 K, x1 = 0.1983 | 1259.83 | 2.019
308.15 K, x1 = 0.2973 | 1320.35 | 3.177
308.15 K, x1 = 0.3958 | 1366.03 | 4.706
308.15 K, x1 = 0.496 | 1402.66 | 6.64
308.15 K, x1 = 0.5954 | 1431.55 | 9.382
308.15 K, x1 = 0.6967 | 1456.07 | 12.62
308.15 K, x1 = 0.7982 | 1476.98 | 16.22
308.15 K, x1 = 0.9004 | 1494.12 | 19.42
308.15 K, x1 = 1 | 1508.3 | 24.15
313.15 K, x1 = 0.0989 | 1168.75 | 1.086
313.15 K, x1 = 0.1983 | 1254.07 | 1.865
313.15 K, x1 = 0.2973 | 1314.81 | 2.904
313.15 K, x1 = 0.3958 | 1360.63 | 4.247
313.15 K, x1 = 0.496 | 1397.36 | 5.946
313.15 K, x1 = 0.5954 | 1426.34 | 8.189
313.15 K, x1 = 0.6967 | 1450.93 | 10.96
313.15 K, x1 = 0.7982 | 1471.88 | 14.22
313.15 K, x1 = 0.9004 | 1489.06 | 17.21
313.15 K, x1 = 1 | 1503.28 | 20.76
318.15 K, x1 = 0.0989 | 1162.63 | 1.016
318.15 K, x1 = 0.1983 | 1248.3 | 1.729
318.15 K, x1 = 0.2973 | 1309.26 | 2.661
318.15 K, x1 = 0.3958 | 1355.23 | 3.831
318.15 K, x1 = 0.496 | 1392.08 | 5.358
318.15 K, x1 = 0.5954 | 1421.14 | 7.249
318.15 K, x1 = 0.6967 | 1445.79 | 9.578
318.15 K, x1 = 0.7982 | 1466.8 | 12.43
318.15 K, x1 = 0.9004 | 1484.02 | 15.16
318.15 K, x1 = 1 | 1498.27 | 17.9
323.15 K, x1 = 0.0989 | 1156.5 | 0.954
323.15 K, x1 = 0.1983 | 1242.54 | 1.608
323.15 K, x1 = 0.2973 | 1303.72 | 2.452
323.15 K, x1 = 0.3958 | 1349.85 | 3.512
323.15 K, x1 = 0.496 | 1386.81 | 4.857
323.15 K, x1 = 0.5954 | 1415.92 | 6.332
323.15 K, x1 = 0.6967 | 1440.67 | 8.381
323.15 K, x1 = 0.7982 | 1461.74 | 10.9
323.15 K, x1 = 0.9004 | 1479 | 13.29
323.15 K, x1 = 1 | 1493.28 | 15.93
328.15 K, x1 = 0.0989 | 1150.34 | 0.898
328.15 K, x1 = 0.1983 | 1236.76 | 1.501
328.15 K, x1 = 0.2973 | 1298.19 | 2.268
328.15 K, x1 = 0.3958 | 1344.47 | 3.224
328.15 K, x1 = 0.496 | 1381.55 | 4.421
328.15 K, x1 = 0.5954 | 1410.75 | 5.588
328.15 K, x1 = 0.6967 | 1435.57 | 7.456
328.15 K, x1 = 0.7982 | 1456.69 | 9.61
328.15 K, x1 = 0.9004 | 1474 | 11.68
328.15 K, x1 = 1 | 1488.31 | 14.26
